Laboratory results: patent US10624871B2, “Bismuth(III) compounds and methods thereof” (priority 2016, dated 2020)

Key:
K. pneumonia (NDM-1+) = experiment: Microdilution MIC and MBC assay, FICI; format: cell-based; conditions: for MBC of MER with Bi(III) compound / MIC of MER with Bi(III) compound: Bi(III) compound at 32 μg mL^−1, K. pneumonia (NDM-1+); for FIC Index: MER with Bi(III) compound, K. pneumonia (NDM-1+)
E. coli (NDM-1+) = experiment: Microdilution MIC and MBC assay, checkerboard FICI; format: cell-based; conditions: for MBC of MER with Bi(III) compound / MIC of MER with Bi(III) compound: Bi(III) compound at 32 μg mL^−1, E. coli (NDM-1+); for FIC Index: MER with Bi(III) compound, E. coli (NDM-1+)
VIM-2 = VIM-2 (Escherichia coli, UniProt Q5U7L7); experiment: IC50 enzyme inhibition assay, MER hydrolysis; format: biochemical; conditions: Zn2-VIM-2, 1 h preincubation at 25° C., 100 μM MER
Description: (§1) […]. The initial rate were extracted and calculated from each reaction curves.

NDM-1 = NDM-1 (Klebsiella pneumoniae, UniProt C7C422); experiment: IC50 enzyme inhibition assay, MER hydrolysis; format: biochemical; conditions: Zn2-NDM-1 50 nM, 1 h preincubation at 25° C., 100 μM MER
Chain of NDM-1 (C7C422 whole entry, looked up): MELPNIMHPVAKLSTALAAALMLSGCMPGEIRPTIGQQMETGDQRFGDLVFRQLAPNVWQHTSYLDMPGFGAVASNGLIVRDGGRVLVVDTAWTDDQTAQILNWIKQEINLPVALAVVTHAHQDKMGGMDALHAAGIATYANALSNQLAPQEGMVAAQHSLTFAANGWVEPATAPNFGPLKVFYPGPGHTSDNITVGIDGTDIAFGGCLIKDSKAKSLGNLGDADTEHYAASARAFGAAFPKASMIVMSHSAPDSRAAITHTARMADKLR
Description: as §1

E. coli (VIM-2+) = experiment: Microdilution MIC and MBC assay, FICI; format: cell-based
C. freundii (NDM-1+) = experiment: Microdilution MIC and MBC assay, FICI; format: cell-based
E. coli (IMP-4+) = experiment: Microdilution MIC and MBC assay, FICI; format: cell-based
[1] = Solubility of the bismuth complexes (Table 1); conditions: solvent named, or insoluble
[2] = Bi(III) compound at 32 μg mL−1, E. coli (VIM-2+)
[3] = Bi(III) compound at 32 μg mL^−1, C. feudii (NDM-1+)
[4] = Bi(III) compound at 32 μg mL−1, E. coli (IMP-4+)

Molecule	MBC of MER with Bi(III) compound (E. coli (NDM-1+))	MIC of MER with Bi(III) compound (E. coli (NDM-1+))	FIC Index (E. coli (NDM-1+))	Solubility [1]	also measured
O=[N+]([O-])[O][Bi]([O][N+](=O)[O-])[O][N+](=O)[O-] [Bi(NO3)3]	4 µg/mL	2 µg/mL	0.266		MBC of MER with Bi(III) compound (K. pneumonia (NDM-1+)): 1 µg/mL; MIC of MER with Bi(III) compound (K. pneumonia (NDM-1+)): 1 µg/mL; FIC Index (K. pneumonia (NDM-1+)): 0.125; IC50 (VIM-2): 2.45 ± 0.63 µM; IC50 (NDM-1): 1.89 ± 0.23 µM; MBC of MER with Bi(III) compound (E. coli (VIM-2+); [2]): 2 µg/mL; MIC of MER with Bi(III) compound (E. coli (VIM-2+); [2]): 1 µg/mL; FIC Index (E. coli (VIM-2+); MER with Bi(III) compound, E. coli (VIM-2+)): 0.063; MBC of MER with Bi(III) compound (C. freundii (NDM-1+); [3]): 4 µg/mL; MIC of MER with Bi(III) compound (C. freundii (NDM-1+); [3]): 2 µg/mL; FIC Index (C. freundii (NDM-1+); MER with Bi(III) compound, C. freundii (NDM-1+)): 0.375; MBC of MER with Bi(III) compound (E. coli (IMP-4+); [4]): 8 µg/mL; MIC of MER with Bi(III) compound (E. coli (IMP-4+); [4]): 4 µg/mL; FIC Index (E. coli (IMP-4+); MER with Bi(III) compound, E. coli (IMP-4+)): 0.313
C1=CC2=C(c3ccccc3)c3ccc4[n]3[Bi+][n]3c(ccc3=C(c3ccccc3)C3=NC(=C4c4ccccc4)C=C3)=C(c3ccccc3)C1=N2 [Complex 1]	8 µg/mL	4 µg/mL	0.266		MBC of MER with Bi(III) compound (K. pneumonia (NDM-1+)): 16 µg/mL; MIC of MER with Bi(III) compound (K. pneumonia (NDM-1+)): 4 µg/mL; FIC Index (K. pneumonia (NDM-1+)): 0.375
O=C(O)c1ccccc1[S-].O=C([O-])c1ccccc1[S-].[Bi+3] [Complex 7]	2 µg/mL	1 µg/mL	0.250	DMSO	
O.O.O=C([O-])CN(CC(=O)[O-])CC(=O)[O-].[Bi+3] [Complex 11]	8 µg/mL	4 µg/mL			
[Bi+3].[O-]c1c([O-])c(Br)c(Br)c(Br)c1Br.[O-]c1c([O-])c(Br)c(Br)c(Br)c1Br [Complex 13]	2 µg/mL	1 µg/mL	0.250	DMSO	
O=[N+]([O-])[O-].O=[N+]([O-])[O-].[Bi+3].c1ccc(-c2ccccn2)nc1.c1ccc(-c2ccccn2)nc1 [Complex 16]	8 µg/mL	2 µg/mL			
NCC(=O)[O-].NCC(=O)[O-].NCC(=O)[O-].[Bi+3] [Complex 18]	16 µg/mL	8 µg/mL			
CNC(=C[N+](=O)[O-])NCCSCc1ccc(CN(C)C)o1.O=C([O-])CC(O)(CC(=O)[O-])C(=O)[O-].[Bi+3] [RBC, ranitidine bismuth citrate]	4 µg/mL	2 µg/mL			
bismuth subgallate [Complex 14]	8 µg/mL	4 µg/mL	0.375	Insoluble	
